# Results: US12180187B2, “1-phenyl-5-azinylpyrazolyl-3-oxyalkyl acids and their use for controlling unwanted plant growth” (BAYER AKTIENGESELLSCHAFT, priority 2019, dated 2024)
# Assays:
# VIOTR [1] = assay: Pre-emergence action at 320 g/ha against VIOTR; type: in vivo, Viola tricolor; settings: dosage 320 g/ha
# Outline: (§1)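 Percent herbicidal activity was assessed by eye roughly three weeks post-application, comparing with untreated plants. Treatment consisted of applying formulated compound in water plus 0.5% additive to covering soil at 600 l/ha before emergence.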
# VERPE = assay: Pre-emergence action against VERPE, 1280 g/ha; type: in vivo, Veronica persica; settings: scored visually after about 3 weeks vs untreated controls (100% = plants have died)
# Outline: (§2)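 Greenhouse pre-emergence test on sown seeds in sandy loam; soil-surface spray of formulated compound with 0.5% additive at 600 L/ha water. Scored visually, % vs untreated, after about 3 weeks.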
# ECHGC = assay: Pre-emergence action at 320 g/ha against ECHGC; type: in vivo, Echinochloa crus-galli; settings: visual scoring after about 3 weeks vs untreated controls
# Outline: as §1
# MATIN [2] = assay: Post-emergence action against MATIN, 1.28 kg/ha; type: in vivo, Tripleurospermum inodorum (Matricaria inodora); settings: dosage 1280 g/ha, visual rating about 3 weeks after treatment vs untreated controls (100% = plants died)
# Outline: (§3)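 Spray at one-leaf stage with WP/EC + 0.5% additive, 600 L water/ha. Greenhouse, optimum conditions, ~3 wk. Visual % control vs untreated; 0 = no effect, 100 = dead.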
# PHBPU = assay: Post-emergence action at 320 g/ha against PHBPU; type: in vivo; settings: visual rating about 3 weeks after treatment vs untreated controls
# Excerpt: Accordingly, the compounds of the invention have good herbicidal action against a broad spectrum of weed grasses and broad-leaved weeds and are therefore suitable for controlling unwanted vegetation by the post-emergence method. • b) Seeds of monocotyledonous and dicotyledonous weeds and crop plants are placed in sandy loam in plastic or organic planting pots, covered with soil and cultivated in a greenhouse under controlled growth conditions. 2 to 3 weeks after sowing, the test plants are treated at the one-leaf stage. The compounds of the invention, formulated in the form of wettable powders (WP) or as emulsion concentrates (EC), are then sprayed onto the green parts of the plants as aqueous suspension or emulsion with addition of 0.5% additive at a water application rate of 600 l/ha (converted). After the test plants have been kept in the greenhouse under optimum growth conditions for about 3 weeks, the activity of the preparations is rated visually in comparison to untreated controls. For example, 100% activity=the plants have died, 0% activity=like control plants. Tables 39 to 49 below show the effects of selected compounds of the general formula (I) according to Tables 1 and 2 on various harmful plants and at an application rate corresponding to 320 g/ha, which were obtained by the experimental procedure mentioned above.
# ALOMY [3] = assay: Pre-emergence action against ALOMY, 1280 g/ha; type: in vivo, Alopecurus myosuroides; settings: visual scoring after about 3 weeks vs untreated controls, 100% = plants have died, 0% = like control plants
# Outline: as §2
# ABUTH = assay: Post-emergence action against ABUTH, 1.28 kg/ha; type: in vivo, Abutilon theophrasti; settings: dosage 1280 g/ha, visual rating about 3 weeks after treatment vs untreated controls (100% = plants died)
# Outline: as §3
# MATIN [4] = assay: Pre-emergence action at 320 g/ha against MATIN; type: in vivo, Tripleurospermum inodorum (Matricaria inodora); settings: visual scoring after about 3 weeks vs untreated controls
# Outline: as §1
# LOLRI [5] = assay: Post-emergence action against LOLRI, 1.28 kg/ha; type: in vivo, Lolium rigidum; settings: dosage 1280 g/ha, visual rating about 3 weeks after treatment vs untreated controls
# Outline: as §3
# ECHCG = assay: Post-emergence action against ECHCG, 1.28 kg/ha; type: in vivo, Echinochloa crus-galli; settings: dosage 1280 g/ha, visual rating about 3 weeks after treatment vs untreated controls
# Outline: as §3
# ALOMY [6] = assay: Post-emergence action against ALOMY, 320 g/ha; type: in vivo, Alopecurus myosuroides; settings: dosage 320 g/ha, visual rating about 3 weeks after treatment vs untreated controls (100% = plants died)
# Outline: (§4)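 Greenhouse pot plants in sandy loam received a foliar spray of WP- or EC-formulated compound at the one-leaf stage. Percent activity against untreated controls was assessed visually around three weeks later.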
# LOLRI [7] = assay: Pre-emergence action at 320 g/ha against LOLRI; type: in vivo, Lolium rigidum; settings: visual scoring after about 3 weeks vs untreated controls
# Outline: as §1
# DIGSA = assay: Post-emergence action against DIGSA, 1.28 kg/ha; type: in vivo, Digitaria sanguinalis; settings: dosage 1280 g/ha, visual rating about 3 weeks after treatment vs untreated controls
# Outline: as §3
# SETVI = assay: Post-emergence action at 320 g/ha against SETVI; type: in vivo, Setaria viridis; settings: visual rating about 3 weeks after treatment vs untreated controls
# Outline: as §4
# VIOTR [8] = assay: Post-emergence action at 320 g/ha against VIOTR; type: in vivo, Viola tricolor; settings: visual rating about 3 weeks after treatment vs untreated controls
# Outline: as §4
SMILES,Pre-emergence action against VIOTR in % (VIOTR [1]),Pre-emergence action against VERPE (VERPE),Pre-emergence action against ECHGC in % (ECHGC),Post-emergence action against MATIN (MATIN [2]),Post-emergence action against PHBPU in % (PHBPU),Pre-emergence action against ALOMY (ALOMY [3]),Post-emergence action against ABUTH (ABUTH),Pre-emergence action against MATIN in % (MATIN [4]),Post-emergence action against LOLRI (LOLRI [5]),Post-emergence action against ECHCG (ECHCG),Post-emergence action against ALOMY (ALOMY [6]),Pre-emergence action against LOLRI in % (LOLRI [7]),Post-emergence action against DIGSA (DIGSA),Post-emergence action against SETVI in % (SETVI),Post-emergence action against VIOTR in % (VIOTR [8])
COC(=O)COc1nn(-c2cc(F)ccc2F)c(-c2ccc(F)nc2)c1Br [VII-089],100%,100%,80%,90%,80%,100%,90%,90%,100%,90%,90%,100%,100%,,
O=C(COc1nn(-c2ccccc2F)c(-c2ccc(F)nc2)c1Br)OCC1CCOC1 (centres unmarked) [VII-091],100%,100%,,90%,,100%,90%,90%,100%,100%,90%,100%,100%,80%,
COC(=O)[C@H](C)Oc1nn(-c2cc(F)ccc2F)c(-c2ccc(F)nc2)c1Br [VII-107],100%,100%,,100%,,90%,90%,90%,,100%,90%,80%,100%,80%,80%
CCOC(=O)COc1nn(-c2ccccc2F)c(-c2ccc(F)nc2)c1C [VII-117],100%,100%,90%,90%,,100%,,90%,100%,100%,90%,100%,100%,80%,80%
COC(=O)[C@@H](C)Oc1nn(-c2cc(F)ccc2F)c(-c2cncc(F)c2)c1Br [VII-132],100%,100%,90%,90%,90%,100%,90%,90%,,100%,90%,100%,100%,,80%
COC(=O)[C@@H](C)Oc1nn(-c2ccccc2F)c(-c2ccnc(F)c2)c1Br [VIII-006],100%,100%,,100%,,100%,,90%,100%,90%,100%,100%,90%,90%,
